Data reported in PMC5551389 (Nature, 2016).

Assays:
CHIV = test: microbe, parasite or virus in culture; format: cell-based; conditions: Chikungunya virus, U2OS
RSV A2 = test: microbe, parasite or virus in culture; format: cell-based; conditions: human respiratory syncytial virus
HIV-1 = test: microbe, parasite or virus in culture; format: cell-based, human immunodeficiency virus type 1
[1] = tested on: human monocyte-derived macrophages

`CCC(CC)COC(=O)[C@H](C)N[P@](=O)(OC[C@H]1O[C@@](C#N)(c2ccc3c(N)ncnn23)[C@H](O)[C@@H]1O)Oc1ccccc1` [GS-5734] was tested, and the EC50 (CHIV; read-out: Antiviral activity EC50) was > 20 µM, the EC90 (CHIV; read-out: Antiviral activity EC90) was > 20 µM and the EC50 (RSV A2; HEp-2, read-out: Antiviral activity EC50) was 0.019 µM. For the same compound, the EC90 (RSV A2; HEp-2, read-out: Antiviral activity EC90) was 0.051 µM, the EC50 (HIV-1; Human immunodeficiency virus 1, read-out: Antiviral activity EC50) was > 20 µM and the EC90 (HIV-1; Human immunodeficiency virus 1, read-out: Antiviral activity EC90) was > 20 µM. The “Intracellular NTP levels, fold higher than with Nuc” value [1] was “up to 30 fold”.
